Laboratory results published in patent US20210171576A1, “METHODS FOR TREATING CANCER WITH ACYLDEPSIPEPTIDE ANALOGS” (priority 2018, published 2021).
Where a SMILES comes first, the peptide text is derived from it. Bridges are numbered along the chain shown (N, C = ends). [ ]: non-standard residue; d: D form. The star is where a group is joined. Octatrienoyl(2E,4E,6E) = C/C=C/C=C/C=C/C(=O)*; Phe(3,5-F2) = N[C@@H](Cc1cc(F)cc(F)c1)C(=O)O; Pip(4S-Me) = C[C@H]1CCN[C@H](C(=O)O)C1; 2Nal = N[C@@H](Cc1ccc2ccccc2c1)C(=O)O; Hexadienoyl(2E,4E) = C/C=C/C=C/C(=O)*; Pro(4R-Me) = C[C@H]1CN[C@H](C(=O)O)C1; Heptenoyl(2E) = CCCC/C=C/C(=O)*; Cha = N[C@@H](CC1CCCCC1)C(=O)O; aThr = C[C@H](O)[C@H](N)C(=O)O; Pip = O=C(O)[C@@H]1CCCCN1; NMeA = CN[C@@H](C)C(=O)O; X1 = CCC/C=C/C=C/C(=O)*; Abu = CC[C@H](N)C(=O)O; Cbz = O=C(OCc1ccccc1)*; X3 = O=C(/C=C/CC1CC1)*; X6 = CCCC/C=C\C(=O)*

Legend:
HsCIpP [1] = target: T1, HsCIpP (Homo sapiens, UniProt Q16740, P57S); assay: Casein-FITC degradation by HsCIpP with HsCIpX titrated; format: biochemical; conditions: HsCIpX titrated 0 to 18 μM, 3 μM HsCIpP
T1 construct: 2x(His6-thrombin)-SUMO (N, cleaved yes); made in house; host or cells: E. coli (SG1146 stated for HsClpP; 'a similar protocol' for HsClpX)
Protocol: The protease activity of purified HsCIpP was assessed by monitoring the degradation of bovine milk casein labelled with fluorescein isothiocyanate (casein-FITC) (Sigma-Aldrich) in the presence of ADEP and/or purified HsCIpX. All reactions were carried out in 25 mM HEPES, pH 7.5, 35 mM KCl, 25 mM MgCl2, 0.03% Tween-20, 10% glycerol, and 1 mM DTT, supplemented with 16 mM creatine phosphate and 300 μM ATP. HsCIpP was used at 3 μM (final monomeric concentration) and casein-FITC was added at the final concentration of 10 μM. 13 U of creatine phosphokinase (Sigma-Aldrich) was also added for ATP regeneration. DMSO was present at 1% (v:v) final concentration in the experiments that involve the use of ADEP analogs. All reactions were carried out with 150 μL of the reaction mix per well in a 96-well black flat-bottom plate at 37° C. Degradation of casein-FITC and subsequent release of the free FITC moiety was monitored by fluorescence with λex=494 nm and λem=518 nm using the EnSpire 2300 Multilabel Reader set to perform a reading every 40 s with 20 flashes. A total of 100 readings were collected in each experiment.
To investigate the casein-FITC degradation by HsCIpXP, kinetic analysis was performed with HsCIpP held constant at 3 μM (final monomeric concentration) and HsCIpX was titrated from 0 to 18 μM (final monomeric concentration). Initial rates (v0) were determined from data collected over three independent experiments. Non-linear regression analysis was then performed on the initial rates data using the Hill equation, as follows: […]
Vmax is maximal velocity, h is the Hill coefficient, and K0.5 is the microscopic apparent dissociation constant.

HsCIpP [2] = target: T1, HsCIpP; assay: Peptidase activity assay (Ac-WLA-AMC cleavage) with ADEP; format: biochemical; conditions: 6 μM HsCIpP, 100 μM Ac-WLA-AMC
Protocol: The peptidase activity of purified, untagged HsCIpP was assessed by monitoring the degradation of peptidyl substrates labelled with a C-terminal 7-amido-4-methylcoumarin (AMC) fluorophore. […] To identify a suitable peptidyl substrate, commercially available AMC-labelled peptides were purchased and tested for degradation by HsCIpP. These include N-acetyl-Trp-Leu-Ala-AMC (Ac-WLA-AMC) (R&D Systems) that was also previously used by Csizmadia et (Csizmadia et al., 2016), benzyloxycarbonyl-Arg-Arg-AMC (Z-RR-AMC) (Sigma-Aldrich), N-acetyl-Leu-Glu-His-Asp-AMC […] (Sigma-Aldrich), N-acetyl-Val-Glu-Thr-Asp-AMC (Ac-VETD-AMC) (Sigma-Aldrich), and benzyloxycarbonyl-Leu-Leu-Leu-AMC (Z-LLL-AMC) (Sigma-Aldrich). Suc-LY-AMC (MP Biomedicals) was also tested as a negative control. All stock solutions of the AMC-labelled peptides were prepared by dissolving the lyophilized peptides in DMSO at 90 mM or a lower concentration recommended by the manufacturer. […] Degradation of the peptidyl substrates and subsequent release of the free AMC moiety was monitored by fluorescence with λex=360 nm and λem=440 nm using the EnSpire 2300 Multilabel Reader (Perkin-Elmer) set to perform a reading every 30 s with 20 flashes. A total of 240 readings were collected for each of three independent replicates prepared for each peptidyl substrate. […]
Initial degradation rates data were analyzed using the Hill model. […]

[3] = target: T2, human mitochondrial CIpP (HsCIpP) (Homo sapiens, UniProt Q16740); assay: Screen of ADEP analogs against HsCIpP: relative degradation (RD) index, casein-FITC degradation relative to E. coli CIpAP; format: biochemical; set-up: key: casein-FITC degradation by HsClpP relative to EcClpAP; conditions: for Hs RD1: RD value at 1 μM of the ADEP analog; for Hs RD5: RD value at 5 μM of the ADEP analog; for Hs RD25: RD value at 25 μM of the ADEP analog, measure of ability to activate HsCIpP
T2 construct: made in house; host or cells: E. coli SG1146 (BL21(DE3) ΔclpP::cat)
From the text: Structural analogs of acyldepsipeptide (ADEP) (Goodreid et al., 2016) that were previously developed as potential antibiotics against bacterial CIpP were screened and assessed for their ability to activate and dysregulate the protease activity of HsCIpP, by measuring their relative degradation (RD) index. Note that ADEP-28 was also previously reported by Carney et al. (2014). Details of the experimental protocol have been described in Leung et al., 2011. The RD index is defined as follows: […]
Δφ is the change in fluorescence after 6 hr of starting the reaction measured using 485 nm excitation and 535 nm emission, which primarily detects the signal from casein-FITC. E. coli CIpAP was used as a benchmark for maximum CIpP proteolytic activity. The CIpP in the numerator can be from any other organism. RD25 measurements refer to the measurement in the presence of 25 μM compound. All ADEP analogs were first screened at 25 μM, and their RD25 scores were calculated using the above formula and method as described in Leung et al., 2011 (FIG. 1A). Those that achieved RD25≥0.87 were screened a second time at 5 μM, followed by calculation of their RD5 scores. The top analogs with RD5≥0.74 were screened a third time at 1 μM, followed by calculation of their RD1 scores (FIG. 1B).
To identify ADEP analogs that allow HsCIpP to degrade folded proteins independent of HsCIpX+ATP (i.e., that activate or dysregulate HsCIpP), the inventors employed the in vitro screening method that was used for identifying small molecule activators of Escherichia coli CIpP (EcCIpP) (Leung et al., 2011). In this approach, the ability of HsCIpP to degrade FITC-labeled casein (casein-FITC) was measured and compared to the ability of EcCIpAP to degrade casein-FITC. This is quantitatively expressed as relative degradation (RD) index (Leung et al., 2011).

HEK293 cells = conditions: reported (Bram et al., 2006); cited from earlier work

T1 sequence (Q16740 57-277 P57S): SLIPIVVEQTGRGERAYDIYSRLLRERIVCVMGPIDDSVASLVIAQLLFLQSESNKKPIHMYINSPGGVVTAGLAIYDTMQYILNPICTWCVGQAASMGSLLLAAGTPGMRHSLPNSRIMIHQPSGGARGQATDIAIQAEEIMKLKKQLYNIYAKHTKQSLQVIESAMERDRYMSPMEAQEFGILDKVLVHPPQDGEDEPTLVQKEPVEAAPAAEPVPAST
T2 sequence (Q16740 57-277): as the sequence (Q16740 57-277 P57S) above, with S1P counted along it

Compound | Hs RD1 [3] | Hs RD5 [3] | Hs RD25 [3] | further results
HsCIpX: the AAA+ ATPase HsCIpX, untagged human mitochondrial ClpX, partner of HsCIpP | – | – | – | Hill coefficient (h) (HsCIpP [1]): 1.25; Vmax (HsCIpP [1]): 6.88 RFU.s^−1; Kd (HsCIpP [1]; read-out: K0.5): 5700 nM
CCC/C=C/C=C/C(=O)N[C@@H](Cc1ccccc1)C(=O)N[C@H]1COC(=O)[C@@H]2C[C@@H](C)CN2C(=O)[C@H](C)NC(=O)[C@H](C)N(C)C(=O)[C@@H]2CCCN2C1=O [ADEP-04] (X1-FSP[NMeA]A[Pro(4R-Me)]; ester 2-C) | 0.32 | 0.78 | 1.03 | Hill coefficient (h), peptidase activity (HsCIpP [2]): 0.8
N.N.[Cl][Pt][Cl] [cisplatin] | – | – | – | IC50 (HEK293 cells): 430 nM
CCCC/C=C\C(=O)N[C@@H](Cc1ccccc1)C(=O)N[C@H]1COC(=O)[C@@H]2CCCN2C(=O)[C@H](C)NC(=O)[C@H](C)N(C)C(=O)[C@@H]2CCCN2C1=O [ADEP-19] (X6-FSP[NMeA]AP; ester 2-C) | – | – | 0.34 | –
CCCC/C=C/C(=O)N[C@@H](CC1CCCCC1)C(=O)N[C@H]1COC(=O)[C@@H]2C[C@@H](C)CN2C(=O)[C@H](C)NC(=O)[C@@H]2CCCCN2C(=O)[C@@H]2CCCN2C1=O [ADEP-21] ({Heptenoyl(2E)}-[Cha]SP[Pip]A[Pro(4R-Me)]; ester 2-C) | – | 0.70 | 1.00 | –
Cc1nc(N)nc(N)c1-c1ccc(Cl)c(Cl)c1 [Metoprine] | – | – | – | IC50 (HEK293 cells): 800 nM
C/C=C/C=C/C=C/C(=O)N[C@@H](Cc1ccccc1)C(=O)N[C@H]1COC(=O)[C@@H]2CCCN2C(=O)[C@H](C)NC(=O)[C@H](C)N(C)C(=O)[C@@H]2CCCN2C1=O [ADEP-08] ({Octatrienoyl(2E,4E,6E)}-FSP[NMeA]AP; ester 2-C) | – | 0.52 | 0.97 | –
C[C@@H]1C[C@H]2C(=O)O[C@@H](C)[C@H](NC(=O)[C@H](Cc3cc(F)cc(F)c3)NC(=O)/C=C/CC3CC3)C(=O)N3CCC[C@H]3C(=O)N3CCCC[C@H]3C(=O)N[C@@H](C)C(=O)N2C1 [ADEP-13] (X3-[Phe(3,5-F2)][aThr]P[Pip]A[Pro(4R-Me)]; ester 2-C) | 0.59 | 0.91 | 1.02 | –
CCCC/C=C/C(=O)N[C@@H](Cc1cc(F)cc(F)c1)C(=O)N[C@H]1COC(=O)[C@@H]2C[C@@H](C)CN2C(=O)[C@H](C)NC(=O)[C@@H]2CCCN2C(=O)[C@@H]2CCCN2C1=O [ADEP-15] | 0.58 | 0.92 | 1.05 | –
C[C@@H]1NC(=O)[C@H](C)N(C)C(=O)[C@@H]2CCCN2C(=O)[C@@H](NC(=O)[C@H](Cc2ccccc2)NC(=O)OCc2ccccc2)COC(=O)[C@@H]2CCCN2C1=O [ADEP-22] (Cbz-FSP[NMeA]AP; ester 2-C) | – | – | 0.00 | –

The next lines start with results.

Hs RD1 [3] | Hs RD5 [3] | Hs RD25 [3] | Compound | further results
0.61 | 0.92 | 0.97 | CCCC/C=C/C(=O)N[C@@H](Cc1cc(F)cc(F)c1)C(=O)N[C@H]1COC(=O)[C@@H]2C[C@@H](C)CN2C(=O)[C@H](CC)NC(=O)[C@@H]2CCCCN2C(=O)[C@@H]2CCCN2C1=O [ADEP-25] ({Heptenoyl(2E)}-[Phe(3,5-F2)]SP[Pip][Abu][Pro(4R-Me)]; ester 2-C) | –
– | – | 0.86 | C/C=C/C=C/C(=O)N[C@@H](Cc1ccccc1)C(=O)N[C@H]1COC(=O)[C@@H]2CCCN2C(=O)[C@H](C)NC(=O)[C@H](C)N(C)C(=O)[C@@H]2CCCN2C1=O [ADEP-26] ({Hexadienoyl(2E,4E)}-FSP[NMeA]AP; ester 2-C) | –
– | – | 0.29 | CCCC/C=C/C(=O)N[C@@H](Cc1c(F)c(F)c(F)c(F)c1F)C(=O)N[C@H]1COC(=O)[C@@H]2C[C@@H](C)CN2C(=O)[C@H](C)NC(=O)[C@@H]2CCCCN2C(=O)[C@@H]2CCCN2C1=O [ADEP-45] | –
– | 0.55 | 0.87 | CCCC/C=C/C(=O)N[C@@H](Cc1ccc2ccccc2c1)C(=O)N[C@H]1COC(=O)[C@@H]2C[C@@H](C)CN2C(=O)[C@H](C)NC(=O)[C@@H]2CCCCN2C(=O)[C@@H]2CCCN2C1=O [ADEP-43] ({Heptenoyl(2E)}-[2Nal]SP[Pip]A[Pro(4R-Me)]; ester 2-C) | –
0.69 | 0.93 | 0.98 | CCCC/C=C/C(=O)N[C@@H](Cc1cc(F)cc(F)c1)C(=O)N[C@H]1COC(=O)[C@@H]2C[C@@H](C)CN2C(=O)[C@H](C)NC(=O)[C@@H]2C[C@@H](C)CCN2C(=O)[C@@H]2CCCN2C1=O [ADEP-30] ({Heptenoyl(2E)}-[Phe(3,5-F2)]SP[Pip(4S-Me)]A[Pro(4R-Me)]; ester 2-C) | –
